Measured values as given in patent US7795378B2, “Peptide compositions for treatment of sexual dysfunction” (Palatin Technologies, Inc., priority 2002, dated 2010).
*1 amine or outer side, *2 acyl side, *3 side chain or, on linkers, in order; H or OH if unused. Where a SMILES comes first, the peptide text is derived from it. [ ]: non-standard residue; d: D form. The star is where a group is joined. Arg(NO2) = N=C(NCCC[C@H](N)C(=O)O)N[N+](=O)[O-]; Ser(Bzl) = O=C([C@H](COCc1ccccc1)N[*:1])[*:2]; dPhe(4-Cl) = N[C@H](Cc1ccc(Cl)cc1)C(=O)O; d2Nal = N[C@H](Cc1ccc2ccccc2c1)C(=O)O; Cit = NC(=O)NCCC[C@H](N)C(=O)O; Orn = NCCC[C@H](N)C(=O)O; Ahp = NCCCCCCC(=O)O; Bn = c1ccc(C*)cc1

Assays:
hMC3-R = target: T1, hMC3-R (Homo sapiens, UniProt P41968); assay: Competitive inhibition binding assay with 125I-NDP-MSH, MC3 receptor; conditions: 10 μM peptide, 0 assigned when raw inhibition between −10% and 10%, read-out: % Inhibition at 10 μM concentration at MC3-Receptor
T1 construct: expressed in transfected cells; host or cells: HEK 293 cells (membranes)
T1 sequence (P41968 whole entry): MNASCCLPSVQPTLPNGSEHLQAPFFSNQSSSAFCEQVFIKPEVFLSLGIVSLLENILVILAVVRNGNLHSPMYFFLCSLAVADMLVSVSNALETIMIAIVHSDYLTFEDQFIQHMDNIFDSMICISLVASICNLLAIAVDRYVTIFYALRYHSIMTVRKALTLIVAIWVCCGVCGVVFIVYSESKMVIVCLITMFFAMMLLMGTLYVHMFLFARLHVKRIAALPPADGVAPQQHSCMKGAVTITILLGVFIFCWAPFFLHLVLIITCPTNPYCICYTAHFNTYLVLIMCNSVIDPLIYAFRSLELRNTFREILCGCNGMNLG
Protocol: (§1) Competitive inhibition binding assay was conducted using membranes prepared from hMC3-R, hMC4-R, hMC5-R, and B-16 mouse melanoma cells (containing MC1-R) using 0.4 nM ^125I-NDP-MSH (0.2 nM for MCL-R) (New England Nuclear, Boston, Mass., USA) in 50 mM HEPES buffer containing 1 mM MgCl2, 2 mM CaCl2, and 5 mM KCl, at pH 7.2. The assay tube also contained a chosen concentration of the peptides of this invention, for determining inhibition of the binding of ^125I-NDP-MSH to its receptor. Non-specific binding was measured by complete inhibition of binding of ^125I-NDP-MSH in the assay in the presence of 1 μM α-MSH. Incubation was for 90 minutes at 37° C., after which the assay mixture was filtered and the membranes washed three times with ice cold buffer. The filter was dried and counted in a gamma counter for remaining radioactivity bound to the membranes. 100% specific binding was defined as the difference in radioactivity (cpm) bound to cell membranes in the absence and presence of 1 μM α-MSH. The cpm obtained in the presence of peptides of this invention were normalized with respect to 100% specific binding to determine the percent inhibition of ^125I-NDP-MSH binding. Each assay was conducted in triplicate.
(§2) The binding of the peptides of Examples 1 to 13, inclusive, to melanocortin receptors was evaluated, with results shown on Table 1. Relative binding was determined by competitive inhibition using an α-MSH analog, iodinated NDP-MSH. B16-Fl mouse melanoma cells were used as the source of MC1 receptors and HEK 293 cells, transfected with human melanocortin receptor sequences, were used as the source of MC3, MC4 and MC5 receptors. A standard competitive binding assay protocol as described above was followed, using ^125I-NDP-MSH as the radioligand. A “0” percent inhibition was assigned when the raw percent inhibition, as an average of at least triplicate measures, was between −10% and 10%; in the majority of instances, the raw percent inhibition was between −10% and 0% inhibition.

hMC5-R = target: T2, hMC5-R (Homo sapiens, UniProt P33032); assay: Competitive inhibition binding assay with 125I-NDP-MSH, MC5 receptor; conditions: 10 μM peptide, 0 assigned when raw inhibition between −10% and 10%, read-out: % Inhibition at 10 μM concentration at MC5-Receptor
T2 construct: expressed in transfected cells; host or cells: HEK 293 cells (membranes)
T2 sequence (P33032 whole entry): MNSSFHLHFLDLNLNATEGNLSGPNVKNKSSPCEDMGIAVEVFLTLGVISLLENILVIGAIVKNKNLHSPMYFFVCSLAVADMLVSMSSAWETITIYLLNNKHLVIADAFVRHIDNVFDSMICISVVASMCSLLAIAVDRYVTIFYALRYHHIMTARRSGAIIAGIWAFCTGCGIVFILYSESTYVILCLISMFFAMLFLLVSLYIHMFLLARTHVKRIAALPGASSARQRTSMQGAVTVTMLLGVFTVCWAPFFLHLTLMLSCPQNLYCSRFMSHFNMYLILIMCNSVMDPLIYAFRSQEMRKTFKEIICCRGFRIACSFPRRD
Protocol: as §1, §2

[1] = target: T3, MC1-R (B16-F1 mouse melanoma cells) (Mus musculus, UniProt Q01727); assay: Competitive inhibition binding assay with 125I-NDP-MSH, MC1 receptor; conditions: 10 μM peptide, 0 assigned when raw inhibition between −10% and 10%, read-out: % Inhibition at 10 μM concentration at MC1-Receptor
T3 construct: B-16 mouse melanoma cells (containing MC1-R); endogenous in cells; host or cells: B16-F1 mouse melanoma cells (membranes)
T3 sequence (Q01727 whole entry): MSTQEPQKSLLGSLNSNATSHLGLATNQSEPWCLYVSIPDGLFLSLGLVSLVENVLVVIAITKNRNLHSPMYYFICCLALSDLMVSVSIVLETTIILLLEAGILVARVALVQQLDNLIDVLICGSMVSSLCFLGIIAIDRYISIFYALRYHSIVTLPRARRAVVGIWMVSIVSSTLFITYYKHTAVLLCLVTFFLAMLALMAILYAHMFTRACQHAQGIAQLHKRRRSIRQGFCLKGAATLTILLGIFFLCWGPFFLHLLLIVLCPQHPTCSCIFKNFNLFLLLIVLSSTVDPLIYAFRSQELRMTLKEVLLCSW
Protocol: as §1, §2

hMC4-R = target: T4, hMC4-R (Homo sapiens, UniProt P32245); assay: Competitive inhibition binding assay with 125I-NDP-MSH, MC4 receptor; conditions: 10 μM peptide, 0 assigned when raw inhibition between −10% and 10%, read-out: % Inhibition at 10 μM concentration at MC4-Receptor
T4 construct: expressed in transfected cells
T4 sequence (P32245 whole entry): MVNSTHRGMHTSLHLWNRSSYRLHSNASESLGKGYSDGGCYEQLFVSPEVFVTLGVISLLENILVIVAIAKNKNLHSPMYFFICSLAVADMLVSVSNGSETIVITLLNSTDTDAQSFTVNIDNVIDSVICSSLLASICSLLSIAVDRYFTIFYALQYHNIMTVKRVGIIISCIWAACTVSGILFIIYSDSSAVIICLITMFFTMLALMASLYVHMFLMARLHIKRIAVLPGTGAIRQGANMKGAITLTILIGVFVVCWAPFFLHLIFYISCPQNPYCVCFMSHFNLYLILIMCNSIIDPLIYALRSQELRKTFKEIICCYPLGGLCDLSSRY
Protocol: as §1, §2

male Sprague-Dawley rats = assay: Induction of penile erections in male rats; assay type: in vivo, rat
Protocol: The ability of the peptides of Examples 1 to 13 to induce penile erection in male rats was evaluated. Male Sprague-Dawley rats weighing 200-250 g were kept on a 12 hour on/off light cycle with food and water ad libitum. All behavioral studies were performed between 10 a.m. and 5 p.m. Groups of 4-8 rats were treated with peptides at a variety of doses via intravenous administration. Immediately after administration, rats were placed into individual polystyrene cages (27 cm long, 16 cm wide, and 25 cm high) for behavioral observation.
The efficacious dose of NH2—(CH2)6CO-Ser(Bzl)-D-Phe(4-Cl)-Arg, made as in Example 1 above, to induce penile erection in Sprague Dawley rats by intravenous dosing and oral administration was determined. […] NH2—(CH2)6CO-Ser(Bzl)-D-Phe(4-Cl)-Arg was efficacious at doses as low as 0.1 to 1 μg/kg of body weight when administered by oral means, and at doses lower than 0.001 μg/kg of body weight when administered by intravenous means.
The efficacious dose of NH2—(CH2)6—CO-Ser(Bzl)-D-Phe(4-Cl)-Arg(NO2), made as in Example 5 above, to induce penile erection in Sprague Dawley rats by intravenous dosing was determined. […] It was determined that NH2—(CH2)6—CO-Ser(Bzl)-D-Phe(4-Cl)-Arg(NO2) was efficacious at doses as low as 0.001 to 10 μg/kg of body weight when administered by intravenous means, with efficacy determined by induction of penile erection in 100% of animals. The optimal dose response was at 1 μg/kg of body weight. FIG. 1 depicts the dose response profile, with the error bars depicting standard deviation where n (the number of animals) is between 8 and 19, depending on the dose point.
The efficacious dose of NH2—(CH2)6—CO-Ser(Bzl)-D-Phe(4-Cl)-Arg(NO2), made as in Example 5 above, to induce penile erection in Sprague Dawley rats by intranasal administration using a micropipetor to deliver 25 μL of solution into one nostril was determined. […] It was determined that NH2—(CH2)6—CO-Ser(Bzl)-D-Phe(4-Cl)-Arg(NO2) was efficacious at doses between 0.01 μg/kg and 100 μg/kg of body weight when administered by intranasal means. The peak dose response was at an intranasal dose of 0.1 μg/kg of body weight.

male rats = assay: Induced penile erections after pre-administration of MC4-R antagonist SHU9119; assay type: in vivo, rat; conditions: SHU9119 approximately 5 minutes before peptide
From the text: It is known that MC4-R antagonists inhibit the erectile activity of MC4-R agonists in a dose dependent manner. Such antagonists include SHU9119, a nonselective melanocortin antagonist of the formula Ac-Nle-cyc/o(-Asp-His-D-Nal(2′)-Arg-Trp-Lys)-NH2 (Hruby V. J., Lu D., Sharma S. D., et al. Cyclic lactam alpha-melanotropin analogues of Ac-Nle^4-cyclo[Asp^5, D-Phe^7, Lys^10]-NH2 with bulky aromatic amino acids at position 7 show high antagonist potency and selectivity at specific melanocortin receptors. J Med Chem 38:3454-3461 (1995)). Antagonists such as SHU9119 are known to inhibit MT-II and other known melanocortin receptor-specific agonists that induce erectile activity. SHU9119 was administered to male rats approximately 5 minutes before administration of either NH2—(CH2)6CO-Ser(Bzl)-D-Phe(4-Cl)-Arg or NH2—(CH2)6CO-Ser(Bzl)-D-Phe(4-Cl)-Arg-Trp-NH2, with Ac-Nle-cyc/o(Asp-His-D-Phe-Arg-Trp-Lys)-OH, a known MC4-R agonist, as a positive control.

Compound | inhibition at 10 µM (hMC3-R) | inhibition at 10 µM (hMC5-R) | inhibition at 10 µM [1] | inhibition at 10 µM (hMC4-R) | animals with induction of penile erection at efficacious doses (male Sprague-Dawley rats; intravenous, 0.001 to 10 μg/kg) | peak (optimal) dose response, intranasal (male Sprague-Dawley rats; male Sprague Dawley rats) | peak (optimal) dose response, intranasal (male Sprague-Dawley rats; male Sprague Dawley rats, listed as NH2—(CH2)6Co-Ser(Bzl)-D-Phe(4-Cl)-Arg(NO2)) | optimal dose response, intravenous (male Sprague-Dawley rats; male Sprague Dawley rats, intravenous) | effect of SHU9119 pre-administration on induced erections (male rats)
CC(=O)N[C@@H](COCc1ccccc1)C(=O)N[C@H](Cc1ccc(Cl)cc1)C(=O)N[C@@H](CCCNC(=N)N)C(=O)O [Ac-Ser(Bzl)-D-Phe(4-Cl)-Arg] (Ac-Ser(Bn)-[dPhe(4-Cl)]-Arg-OH) | 0% | 0% | 0% | 0% | – | – | – | – | –
C[C@H](NC(=O)CCCCCCN)C(=O)N[C@H](Cc1ccc(Cl)cc1)C(=O)N[C@@H](CCCNC(=N)N)C(=O)O [NH2—(CH2)6—CO-Ala-D-Phe(4-Cl)-Arg] (H-[Ahp]A[dPhe(4-Cl)]R-OH) | 0% | 0% | 0% | 0% | – | – | – | – | –
C[C@@H](NC(=O)[C@H](COCc1ccccc1)NC(=O)CCCCCCN)C(=O)N[C@@H](CCCNC(=N)N)C(=O)O [NH2—(CH2)6—CO-Ser(Bzl)-D-Ala-Arg] (H-[Ahp]S(Bn)[dA]R-OH) | 0% | 0% | 0% | 0% | – | – | – | – | –
N=C(N)NCCC[C@H](NC(=O)[C@@H](Cc1ccc2ccccc2c1)NC(=O)[C@H](COCc1ccccc1)NC(=O)CCCCCCN)C(N)=O [NH2—(CH2)6—CO-Ser(Bzl)-D-Nal 2-Arg-NH2] (H-[Ahp]S(Bn)[d2Nal]R-NH2) | 0% | 0% | 0% | 0% | – | – | – | – | –
N=C(N)NCCC[C@H](NC(=O)[C@@H](Cc1ccc2ccccc2c1)NC(=O)[C@H](COCc1ccccc1)NC(=O)CCCCCCN)C(=O)O [NH2—(CH2)6—CO-Ser(Bzl)-D-Nal 2-Arg] (H-[Ahp]S(Bn)[d2Nal]R-OH) | 0% | 0% | 0% | 0% | – | – | – | – | –
C[C@H](NC(=O)[C@@H](Cc1ccc(Cl)cc1)NC(=O)[C@H](COCc1ccccc1)NC(=O)CCCCCCN)C(=O)O [NH2—(CH2)6—CO-Ser(Bzl)-D-Phe(4-Cl)-Ala] (H-[Ahp]S(Bn)[dPhe(4-Cl)]A-OH) | 0% | 0% | 0% | 0% | – | – | – | – | –
NCCCCCCC(=O)N[C@@H](COCc1ccccc1)C(=O)N[C@H](Cc1ccc(Cl)cc1)C(=O)N[C@@H](CCCNC(N)=N[N+](=O)[O-])C(=O)O [NH2—(CH2)6—CO-Ser(Bzl)-D-Phe(4-Cl)-Arg(NO2)] (H-[Ahp]S(Bn)[dPhe(4-Cl)][Arg(NO2)]-OH) | 0% | 0% | 0% | 0% | 100% | 0.1 µg/kg | about 0.1 μg/kg | 1 µg/kg | –
N=C(N)NCCC[C@H](NC(=O)[C@@H](Cc1ccc(Cl)cc1)NC(=O)[C@H](COCc1ccccc1)NC(=O)CCCCCCN)C(N)=O [NH2—(CH2)6—CO-Ser(Bzl)-D-Phe(4-Cl)-Arg-NH2] (H-[Ahp]S(Bn)[dPhe(4-Cl)]R-NH2) | 0% | 0% | 0% | 0% | – | – | – | – | –
NCCCCCCC(=O)N[C@@H](COCc1ccccc1)C(=O)N[C@H](Cc1ccc(Cl)cc1)C(=O)N[C@@H](CCCNC(N)=O)C(=O)O [NH2—(CH2)6—CO-Ser(Bzl)-D-Phe(4-Cl)-Cit] (H-[Ahp]S(Bn)[dPhe(4-Cl)][Cit]-OH) | 0% | 0% | 0% | 0% | – | – | – | – | –
NCCCCCCC(=O)N[C@@H](COCc1ccccc1)C(=O)N[C@H](Cc1ccc(Cl)cc1)C(=O)N[C@@H](CCCCN)C(=O)O [NH2—(CH2)6—CO-Ser(Bzl)-D-Phe(4-Cl)-Lys] (H-[Ahp]S(Bn)[dPhe(4-Cl)]K-OH) | 0% | 0% | 0% | 0% | – | – | – | – | –
NCCCCCCC(=O)N[C@@H](COCc1ccccc1)C(=O)N[C@H](Cc1ccc(Cl)cc1)C(=O)N[C@@H](CCCN)C(=O)O [NH2—(CH2)6—CO-Ser(Bzl)-D-Phe(4-Cl)-Orn] (H-[Ahp]S(Bn)[dPhe(4-Cl)][Orn]-OH) | 0% | 0% | 0% | 0% | – | – | – | – | –
N=C(N)NCCC[C@H](NC(=O)[C@@H](Cc1ccc(Cl)cc1)NC(=O)[C@@H](N)COCc1ccccc1)C(=O)O [Ser(Bzl)-D-Phe(4-Cl)-Arg] (H-Ser(Bn)-[dPhe(4-Cl)]-Arg-OH) | 0% | 0% | 0% | 0% | – | – | – | – | –
NH2—(CH2)6CO-Ser(Bzl)-D-Phe(4-Cl)-Arg-Trp-NH2 ({NH2‑(CH2)6‑CO}-[Ser(Bzl)][dPhe(4-Cl)]RW-NH2) | – | – | – | – | – | – | – | – | resulted in erections at a rate equivalent to that obtained without pre-administration of SHU9119
